These results are taken from patent US8088749B2, “Compositions and methods for treating cancer” (The Regents of the University of Michigan, priority 2007, dated 2012).

“Also recorded” adds a separate entry of the source.

The subject of series [1] is ATDC. Kind of series: Western blot analysis of ATDC after miRNA mimic transfection, BXPC-3 cells. The class given is cell-based, human. To be noted: 36 h after transfection with miRNA mimics. Here is the method: (§1) FIGS. 31A and B are L3.6PL cells, and FIGS. 31 C and D are BXPC3 cells. The lanes in these figures is as follows: 1(a). Lipofectamine2000 only; 2(b). Control miRNA; 3. miR-299-5p; 4. miR-185; 5. miR-522; 6. miR-506; 7. miR-765; 8. miR-362; 9. miR-515-5p; 10. miR-661; 11. miR-525; c. miR-34a; d. miR-34b; e. miR-34c; f. miR-150; g. miR-296; h. miR-500; and i. miR-650.
(§2) For testing the miRNAs for ATDC, Western blot analysis of pancreatic cancer cells transfected was carried out with the miRNAs by Lipofactamine2000. […] They are miR-34a, miR-34c, miR-296, miR-650, miR-299-5p, miR-185, miR-765, miR-522, and miR-362.

Series [2] has as its system ATDC. The series can be described thus: Western blot analysis of ATDC after miRNA mimic transfection, L3.6PL cells. Type of series: cell-based, human. The settings on record: 36 h after transfection with miRNA mimics. How it is done: as §1, §2
In general terms: A western blot detects proteins with antibodies after separation by electrophoresis.

Series [3] has as its system ATDC. Kind of series: ATDC gene expression in gastric cancer KATO III cells. The class given is cell-based. To be noted: human gastric cancer KATO III cells. Here is the method:
Next, the miRNAs regulation of ATDC by qRT-PCR was examined. 24 hours after miRNA mimic transfection of the cancer cells (100 pmol per well in 6-well plates), ATDC mRNA levels were measured by qRT-PCR with TaqMan SYBR Green PCR System (Applied Biosystems). Briefly, total RNA was extracted from the transfected cells using TRIZOL (Invitrogen) according to the manufacturer's instructions. Reverse transcription was performed using a TaqMan Reverse Transcription Kit (Applied Biosystems). For qRT-PCR, 1 μl of gene primers with SYBR Green (Applied Biosystems) in 20 μl of reaction volume was applied. Primers for ATDC: Forward: 5′-[…]-3′ (SEQ ID NO:45), Reverse: 5′-[…]-3′ (SEQ ID NO:46).

Series [4] has as its system ATDC. The series can be described thus: ATDC localization after nuclear export inhibition, Panc-1 cells. To be noted: 1 ng/ml, 6 hours. The class given is cell-based, human. Here is the method:
In previous reports, ATDC was described as being predominately cytoplasmic in several cell types (see, e.g., Reymond A, et al., Embo J 2001; 20, 2140-2151; Brzoska P M, et al., Proc. Natl. Acad. Sci. USA 1995; 92, 7824-7828), conflicting with its potential role in the DNA damage response/DNA repair. In localization studies, it was determined that both endogenous ATDC and GFP-tagged ATDC had predominantly cytoplasmic localization, with some staining in the nucleus. To better understand how a protein with predominately cytoplasmic localization might be involved in the DNA response, wild type Panc-1 cells was treated with the nuclear export inhibitor leptomycin B (1 ng/ml) for 6 hours.

The subject of series [5] is Dvl-2. Kind of series: Western blot after Dvl-2 shRNA transfection, HEK 293 cells. Type of series: cell-based, human. The settings on record: transient transfection. Here is the method: (§3) FIG. 26. The oncogenic effects of ATDC are mediated by Dvl-2. (A. B) The effects of Dvl-2 shRNA 1 or 2 on b-catenin expression is shown in representative Western blots of HEK 293 (A) and MiaPaCa2 cells […] with or without ATDC overexpression. (C, D) TCF reporter activity was assessed in Dvl-2 shRNA 1 or 2-transfected HEK 293 (C) or Mia PaCa2 cells (D) with (+) or without (−) ATDC overexpression. The results from 3 separate experiments, performed in triplicate (*p<0.05 vs empty vector-transfected cells). (E. F) MTS proliferation assays in Dvl-2 shRNA1 or 2-transfected HEK 293 (E) and MiaPaCa2 (F) cells with (+) or without (−) ATDC overexpression (n=3, *p<0.05 vs wild type cells). (G) TCF reporter activity was measured in HEK 293, SW480, DLD-1 and HCT-116 cells with vector (white bars) or ATDC (black bars) transfection using the β-catenin responsive TOPFLASH reporter and the mutant control FOPFLASH reporter. The mean of the TOP/FOP ratio, as compared with the activity, for three independent experiments, performed in triplicate. […] The experiments were repeated three times and the data is expressed as the mean±SE. […] 48 hours after transfection, cell growth rates were assessed. […]

In series [6] the test system is Dvl-2. Kind of series: Western blot after Dvl-2 shRNA transfection, MiaPaCa2 cells. The class given is cell-based, human. The settings on record: transient transfection. How it is done:
as §3

On to “miR-185: miRNA mimic (CUUGACGGAAAGAGAGGU; listed as RNA, chemistry not given here; listed as Homo sapiens)”, for which the ATDC protein levels result in series [1] and in series [2] was “potently reduced” throughout.

Turning to “miR-34a: miRNA mimic (UUGUUGGUCGAUUCUGUGACGGU; listed as RNA, chemistry not given here; listed as Homo sapiens)”, the ATDC protein levels result in series [1] and in series [2] was “potently reduced” in each case. The ATDC gene expression result in series [3] is “potently down-regulated; also recorded: significantly inhibited”.

As for `CCC(=C/[C@H](C)C/C=C/C(C)=C/[C@@H](C)C(=O)[C@@H](C)[C@H](O)[C@@H](C)C/C(C)=C/C(=O)O)/C=C/[C@@H]1OC(=O)C=C[C@@H]1C` [leptomycin B], the values for the ATDC localization entry in series [4] and in series [4] (listed as leptomycin) were “ATDC accumulation in the nucleus” and “nuclear retention of ATDC”, respectively.

Regarding “miR-34c: miRNA mimic (CGUUAGUCGAUUGAUGUGACGGA; listed as RNA, chemistry not given here; listed as Homo sapiens)”, the ATDC protein levels result in series [1] and in series [2] was “potently reduced” each time.

In the case of “miR-650: miRNA mimic (CAGGACUCUCGCGACGGAGGA; listed as RNA, chemistry not given here; listed as Homo sapiens)”, the ATDC protein levels result is “potently reduced” in series [1] and “potently reduced; also recorded: less potent” in series [2].

Consider “miR-522: miRNA mimic (UUGUGAGAUUUCCCUUGGUAAAA; listed as RNA, chemistry not given here; listed as Homo sapiens)”, for which the ATDC protein levels result in series [1] and in series [2] was “potently reduced” each time.

For “miR-362: miRNA mimic (UGAGUGUGGAUCCAAGGUUCCUAA; listed as RNA, chemistry not given here; listed as Homo sapiens)”, the ATDC protein levels result in series [1] and in series [2] was “potently reduced” throughout.

For the molecule “miR-765: miRNA mimic (GUAGUGGAAGGAAGAGGAGGU; listed as RNA, chemistry not given here; listed as Homo sapiens)”, the values for the ATDC protein levels result in series [1] and in series [2] were “potently reduced” and “potently reduced; also recorded: less potent”, respectively.

Turning to “miR-299-5p: miRNA mimic (UACAUACACCCUGCCAUUUGGU; listed as RNA, chemistry not given here; listed as Homo sapiens)”, the ATDC protein levels entry in series [1] and in series [2] was “potently reduced” each time.

B1: Dvl-2 shRNA 1: shRNA to Dvl-2, sense and anti-sense SEQ ID NOs: 7 and 8 (OriGene) (nucleic acid, listed as Homo sapiens)
sense: CACCTGTAGCTGCCTTTGTTACTCTATTTATTTCGAAAAATAAATAGAGTAACAAAGGCAGCTACA
antisense: AAAATGTAGCTGCCTTTGTTACTCTATTTATTTATTCGAAATAAATAGAGTAACAAAGGCAGCTACA
modifications: the letters are possibly those of the target site
For B1, the “levels of Dvl-2” value in series [5] and in series [6] was “effective” throughout.

B2: Dvl-2 shRNA 2: shRNA to Dvl-2, sense and anti-sense SEQ ID NOs: 9 and 10 (OriGene) (nucleic acid, listed as Homo sapiens)
sense: CACCGGACCGCATGTGGCTCAAGATCACCATCCCGAAGGATGGTGATCTTGAGCCACATGCGGTCC
antisense: AAAAGGACCGCAGTGGCTCAAGATCACCATCCTTCGGGATGGTGATCTTGAGCCACATGCGGTCC
modifications: the letters are possibly those of the target site
Consider B2, for which the “levels of Dvl-2” value in series [5] and in series [6] was “effective” in each case.
